Patent US20240058324A1, “COMPOSITION FOR PREVENTION AND TREATING DEMENTIA THROUGH THE COMBINATION OF PDE5 INHIBITORS AND GLUCOCORTICOID RECEPTOR ANTAGONISTS” (ARIBIO CO., LTD., priority 2021, published 2024)

Experiments:
Aβ42 = experiment: Amyloid Beta 42 Human ELISA, amount of Aβ42 in RA-differentiated SH-SY5Y cells treated with Aβ1-42 oligomer; assay type: cell-based; details: 24 h
Method: To determine the amount of change in amyloid beta, […] cells were dispensed into T-25 flask.
For cell adhesion and stabilization, cells were incubated for 24 hours in DMEM/F12 Complete Medium (HyClone) containing 10% FBS (HyClone) and 1% P/S (HyClone) at 37° C. under 5% CO2 condition in a CO2 incubator (Thermo Fisher Scientific Forma).
After 24 hours of cell dispensing, the cell culture medium is removed for neuron-like differentiation, and replaced with DMEM/F12 differentiation media containing 1% FBS (HyClone), 1% P/S (HyClone), 10 μM all-trans-retinoic acid (RA; Sigma--Aldrich, St. Louis, MO, USA).
On the third day of differentiation, the medium was replaced with a new DMEM/F12 differentiation medium. On the sixth day of differentiation, the medium of the untreated control group was replaced with a new DMEM/F12 differentiation medium and the medium of the sample treatment group was replaced with a various conditions by adding a new DMEM/F12 differentiation medium under various conditions.
Human Aβ1-42 (Abeam, Cambridge, MA, USA) was added upto 10 μM to DMEM/F12 Complete Medium (HyClone) containing 1% FBS (HyClone) and 1% P/S (HyClone) to form Aβ1-42 oligomer and left for 3 hours in a CO2 incubator (Thermo Fisher Scientific Forma) under 37° C. and 5% CO2 conditions to form Aβ1-42 oligomer.
In order to confirm the Aβ 1-42 change, the existing cell culture medium was removed from the RA-differentiated SH-SY5Y neuron-like cells, replaced with DMEM/F12 Complete Medium (HyClone) containing Aβ1-42 oligomer ([…] Fisher Scientific Forma) at 37° C. under 5% CO2 conditions to induce Aβ1-42 oligomer-induced cell damage.
In order to measure the amount of Aβ42 (pg/mL) in the cell, the cells were recovered and treated with the cell lysis buffer.
Thereafter, after centrifugation at 14,000 rpm 4° C. for 10 minutes, the supernatant was transferred to recover the protein. The amount of protein was quantified using the Pierce™ BCA Protein Assay Kit (Thermo Fisher Scientific). Then, the amount of Aβ42 in cells was measured using a Human Aβ42 ELISA Kit (Invitrogen).

IL-1β = experiment: Real time RT-qPCR of pro-inflammatory cytokine IL-1β in LPS-treated IMG microglia cells; assay type: cell-based, mouse; details: LPS 100 ng/ml
Method: (§1) The IMG cells, a mouse microglia cell line used in the experiments, were cultured, and maintained in DMEM complete medium (HyClone) containing 10% fetal bovine serum (FBS; Australian Orgin, HyClone, Logan, UT, USA) and 1% penicillin/streptomycin (P/S; HyClone) at 37° C. with 5% CO2 in a humidified CO2 incubator (311-TIF, Thermo Fisher Scientific Forma, MA, USA). Total 2×10^5 cells were seeded in each well of the 6-well plate and they were incubated for 24 h in the humidified CO2 incubator as mentioned above. Further, 100 ng/ml of LPS and the drugs, AR1001 2 μM and GR modulator (CORT-108297) 6, 12, 24, 36, 48 μM were treated individually or in combination.
(§2) The cells were scraped using a cell scraper, and 2 mL of the culture solution was collected in a 15 mL conical tube, It was centrifuged at 3,000 RPM for 5 min and the supernatant (culture solution) was discarded. The pellet was resuspended in 1 mL of Trizol and it was transferred to 1.5 mL microfuge tube. Further, 0.2 mL of chloroform was added and it was vortexed for 1 min. The microfuge tube was kept in a stand for 2 min at room temperature. After centrifugation at 12,000×g for 10 min at 4° C., the supernatant (approx 500 μL) separated in a fresh microfuge tube. Equal volume of isopropanol was added to the supernatant and mixed the solution well. It was put in the microfuge tube stand for 10 min at room temperature and thereafter, centrifuged at 12,000×g for 10 min at 4° C. The supernatant was discarded and the pellet was washed twice with 75% ethanol. The RNA pellet was dried and dissolved in 10 μL DEPC treated water. After quantification of the RNA, it was converted to cDNA following the PrimeScript™ II 1st strand cDNA Synthesis Kit (Takara) protocol.
(§3) The sample cDNAs were amplified with gene specific primers and SYBR green PCR master mix (ThermoFisher) in the model Quant Studio 5 Thermal cycler (Applied biosystems). The amplification conditions were as follows—polymerase activation at 50° C. for 2 min, predenaturation preceding at 95° C. for 10 min, total 40 cycles of denaturation at 95° C. for 15 sec, annealing at 60° C. for 30 sec and extension at 72° C. for 30 sec. The specific primer sequences are mentioned in Table-1.

TNF-α = experiment: Real time RT-qPCR of pro-inflammatory cytokine TNF-α in LPS-treated IMG microglia cells; assay type: cell-based, mouse; details: LPS 100 ng/ml
Method: as §1, §2, §3

[1] = CORT-108297 0.1 μM alone, SH-SY5Y, Aβ 10 μM
[2] = CORT-108297 0.3 μM alone, SH-SY5Y, Aβ 10 μM
[3] = CORT-108297 0.6 μM alone, SH-SY5Y, Aβ 10 μM
[4] = CORT-108297 1.2 μM alone, SH-SY5Y, Aβ 10 μM
[5] = CORT-108297 1.8 μM alone, SH-SY5Y, Aβ 10 μM
[6] = CORT-108297 2.4 μM alone, SH-SY5Y, Aβ 10 μM
[7] = CORT-108297 3.0 μM alone, SH-SY5Y, Aβ 10 μM

CCCOc1ccc(S(=O)(=O)N2CCN(CCO)CC2)cc1-c1nc2c(CCC)cn(CC)c2c(=O)[nH]1 [AR1001, mirodenafil]
Aβ42 concentration Average concentration (Aβ42; AR1001 0.1 μM alone, SH-SY5Y neuron-like cells, Aβ1-42 oligomer 10 μM): 46.45 pg/mL | Aβ42 Reduction rate Average reduction rate (Aβ42; AR1001 0.1 μM alone, SH-SY5Y, Aβ 10 μM): 1.77% | IL1β Reduction (%) (IL-1β; AR1001 2 μM alone): 4.70% | TNFα Reduction (%) (TNF-α; AR1001 2 μM alone): 8.58%

CCOC[C@]12Cc3cnn(-c4ccc(F)cc4)c3C=C1CCN(S(=O)(=O)c1ccc(C(F)(F)F)cc1)C2 [CORT-108297]
Aβ42 Reduction rate Average reduction rate (Aβ42; [1]): 4.26% | Aβ42 concentration Average concentration (Aβ42; [1]): 45.40 pg/mL | Aβ42 Reduction rate Average reduction rate (Aβ42; [2]): 4.24% | Aβ42 concentration Average concentration (Aβ42; [2]): 45.40 pg/mL | Aβ42 Reduction rate Average reduction rate (Aβ42; [3]): 6.88% | Aβ42 concentration Average concentration (Aβ42; [3]): 44.29 pg/mL | Aβ42 Reduction rate Average reduction rate (Aβ42; [4]): 9.34% | Aβ42 concentration Average concentration (Aβ42; [4]): 43.25 pg/mL | Aβ42 Reduction rate Average reduction rate (Aβ42; [5]): 11.97% | Aβ42 concentration Average concentration (Aβ42; [5]): 42.14 pg/mL | Aβ42 Reduction rate Average reduction rate (Aβ42; [6]): 17.91% | Aβ42 concentration Average concentration (Aβ42; [6]): 39.64 pg/mL | Aβ42 Reduction rate Average reduction rate (Aβ42; [7]): 31.34% | Aβ42 concentration Average concentration (Aβ42; [7]): 33.97 pg/mL | IL1β Reduction (%) (IL-1β; CORT-108297 6 μM alone): 7.02% | IL1β Reduction (%) (IL-1β; CORT-108297 12 μM alone): 8.38% | IL1β Reduction (%) (IL-1β; CORT-108297 24 μM alone): 17.88% | IL1β Reduction (%) (IL-1β; CORT-108297 36 μM alone): 35.86% | IL1β Reduction (%) (IL-1β; CORT-108297 48 μM alone): 57.37% | TNFα Reduction (%) (TNF-α; CORT-108297 6 μM alone): 9.41% | TNFα Reduction (%) (TNF-α; CORT-108297 12 μM alone): 15.52% | TNFα Reduction (%) (TNF-α; CORT-108297 24 μM alone): 23.86% | TNFα Reduction (%) (TNF-α; CORT-108297 36 μM alone): 37.30% | TNFα Reduction (%) (TNF-α; CORT-108297 48 μM alone): 52.51%
